In publication PMC4186413, “Identification of metabolic pathways and enzyme systems involved in the in vitro human hepatic metabolism of dronedarone, a potent new oral antiarrhythmic drug” (Pharmacology Research & Perspectives, 2014):
One block for each compound: values may come before it.

Columns and labels:
Format in all cases: in vitro ADME
MAO-A and MAO-B = assay: Oxidation by recombinant human MAOs; details: 1 mg/mL, 5 μmol/L, 30 min, no cofactor
Description: (§1) Recombinant human CYPs (Supersomes™; BD Gentes, Woburn, MA: CYP1A1, CYP1A2, CYP2A6, CYP2B6, CYP2C8, CYP2C9, CYP2C18, CYP2C19, CYP2D6, CYP2E1, CYP3A4 and CYP3A5), FMOs (Supersomes™: FMO1, FMO3, FMO5), MAOs (Supersomes™: MAO-A and MAO-B), and UGTs (Supersomes™: UGT1A1, UGT1A3, UGT1A4, UGT1A6, UGT1A7, UGT1A8, UGT1A9, UGT1A10, UGT2B4, UGT2B7, UGT2B15, and UGT2B17) expressed in baculovirus-infected insect cells and control microsomes from insect cells infected with wild-type baculovirus were all obtained from BD Gentest (Woburn, MA).
(§2) For oxidative pathways, the assay mixture was composed of human liver microsomes (1 mg·m·L^−1) or microsomes of baculovirus-infected cells expressing human enzymes (100 pmol·mL^−1 for CYPs and 1 mg·mL^−1 for FMOs and MAOs), nicotinamide adenine dinucleotide phosphate reduced form (NADPH) (1 mmol/L), 100 mmol/L potassium phosphate (pH 7.4), and 5 μmol/L of the investigated compound dissolved in DMSO in a final volume of 500 μL.
(§3) The final concentration of DMSO in the reaction mixture was less than 1% (v/v). Initial rate conditions with respect to time and protein concentration for both the disappearance of unchanged drug and the formation of respective metabolites were established in preliminary studies. The enzyme reaction was initiated by addition of NADPH (10 mmol/L aqueous solution) to achieve a final concentration of 1 mmol/L for oxidative CYP- and FMO-dependent reactions or by the drug for MAO-dependent reactions, incubated at 37°C and stopped after 0–30 min by addition of one volume of ice-cold acetonitrile.
(§4) In human liver microsomes and recombinant isoforms, the percentage of metabolism was determined on the basis of unchanged drug disappearance, using the following equation [drawing 1] where UDt = 30 min represents the unchanged drug peak area after a 30-min incubation period and UDt = 0, the unchanged drug peak area at t = 0.
(§5) To identify the specific isoforms that are capable of oxidizing dronedarone and its metabolites, assays were performed using c-DNA-expressed isoforms belonging to CYP- (CYP1A1, -1A2, -2A6, -2B6, -C8, -2C9, -2C18, -2C19, -2D6, -2E1, -3A4, and -3A5), FMO- (FMO-1, -3, and -5) and MAO- (MAO-A and MAO-B) families.
(§6) Figure 5 Contribution of individual CYPs, FMOs and MAOs to the oxidation of dronedarone and its metabolites. […] Unchanged drugs were quantified by LC/MS-MS relative to the synthetic references as described in Materials and Methods. Data are expressed as the percentage of oxidation.

[1] = Glucuronidation by human hepatic microsomal fractions with UDPGA; details: 5 μmol/L; for Metabolism in the presence of UDPGA: UDPGA as cofactor
Method: Human hepatic microsomal fractions were obtained from a large pool of human liver (150 individuals) prepared by BD Gentest-Biosciences (BD UltraPool™ HLM 150 – catalogue reference, 452118 Easy Count Box, Woburn, MA). This pooled human liver microsomal batch was also validated internally by the use of FDA-recommended CYP probes (FDA guidance for Industry, draft guidance February 2012).
For glucuronidation pathways, the assay mixture was composed of human liver microsomes (2 mg·mL^−1) or microsomes of baculovirus-infected cells expressing human UGTs (1 mg·mL^−1), uridine 5′-diphosphoglucuronic acid (UDPGA) (3 mmol/L), 100 mmol/L Tris HCl (pH 7.4) containing 5 mmol/L MgCl2 and 5 μmol/L of the investigated compound dissolved in DMSO in a final volume of 500 μL. The final concentration of DMSO in the reaction mixture was less than 1% (v/v). Initial rate conditions with respect to time and protein concentration for both the disappearance of unchanged drug and the formation of respective metabolites were established in preliminary studies. The microsomal mixture was first incubated for 10 min at 4°C in the presence of alamethicin (0.125 mg·mL^−1), then the reaction was initiated by addition of UDPGA (30 mmol/L aqueous solution) to achieve a final concentration of 3 mmol/L for UGT-dependent reactions, incubated at 37°C and stopped after 0–30 min by addition of one volume of ice-cold acetonitrile.
After removal of the proteins by centrifugation at 10,000 rpm for 10 min, a portion of the supernatant was analyzed by LC-UV-MS.
Since a N-glucuronidation process could not be excluded, and because some of the metabolites bear either, a free hydroxyl group or carboxylic acid function, glucuronidation of dronedarone and its potential metabolites was also investigated in human hepatic microsomal fractions in the presence of UDPGA as cofactor. Only propanoic acid-dronedarone and phenol-dronedarone were metabolized in the presence of UDPGA.
Figure 6 Quantitative glucuronidation of propanoic acid-dronedarone (A) and phenol-dronedarone (B) during a 30-min incubation of human hepatic microsomal fractions (1 mg/mL final concentration) with 5 μmol/L unchanged drug in the presence of UDPGA. The kinetics of propanoic acid-dronedarone disappearance (○-○), phenol-dronedarone disappearance and their respective glucuronide formation (●-●, dashed line) were recorded over 30 min. Propanoic acid-dronedarone and phenol-dronedarone were quantified by LC/MS-MS relative to the synthetic references, while the peak area of their respective identified glucuronide was expressed in arbitrary units (×10^3), as described in Materials and Methods.

FMO-1, -3, and -5 = assay: Oxidation by recombinant human FMOs; details: 1 mg/mL, 5 μmol/L, 30 min, NADPH
Description: as §1, §2, §3, §4, §5
Figure 5 Contribution of individual CYPs, FMOs and MAOs to the oxidation of dronedarone and its metabolites. Individual CYPs (100 pmol/mL), FMOs (1 mg/mL) and MAOs (1 mg/mL) were incubated with either dronedarone (A) or its metabolites, N-debutyl-dronedarone (B), propanoic acid-dronedarone (C), and phenol-dronedarone (D), at a concentration of 5 μmol/L, for 30 min at 37°C in the presence of NADPH, except for MAOs where incubations were performed in the absence of cofactor. Unchanged drugs were quantified by LC/MS-MS relative to the synthetic references as described in Materials and Methods. Data are expressed as the percentage of oxidation.

CYP2D6 = target: T1, CYP2D6 (Homo sapiens, UniProt P10635); assay: Oxidation by recombinant human CYP2D6; details: for Percentage of oxidation (unchanged drug disappearance) by CYP2D6: 100 pmol/mL, 5 μmol/L, 30 min, NADPH
T1 construct: purchased BD Gentest (Woburn, MA); host or cells: baculovirus-infected insect cells
T1 sequence (P10635 whole entry): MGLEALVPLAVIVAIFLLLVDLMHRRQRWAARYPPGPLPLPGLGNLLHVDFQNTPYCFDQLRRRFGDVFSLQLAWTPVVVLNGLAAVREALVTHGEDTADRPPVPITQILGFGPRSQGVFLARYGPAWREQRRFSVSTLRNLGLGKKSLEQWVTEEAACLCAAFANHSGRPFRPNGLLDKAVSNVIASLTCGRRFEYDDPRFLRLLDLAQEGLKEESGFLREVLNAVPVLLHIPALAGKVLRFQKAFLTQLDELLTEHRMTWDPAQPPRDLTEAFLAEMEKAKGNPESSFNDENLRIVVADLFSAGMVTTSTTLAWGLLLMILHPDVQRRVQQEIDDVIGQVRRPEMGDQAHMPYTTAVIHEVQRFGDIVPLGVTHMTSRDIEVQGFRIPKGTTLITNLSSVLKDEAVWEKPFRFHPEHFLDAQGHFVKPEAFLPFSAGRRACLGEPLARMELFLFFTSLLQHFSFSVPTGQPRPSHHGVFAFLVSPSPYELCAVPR
Description: as §1, §2, §3, §4, §5, §6

CYP3A5 = target: T2, CYP3A5 (Homo sapiens, UniProt P20815); assay: Oxidation by recombinant human CYP3A5
T2 construct: purchased BD Gentest (Woburn, MA); host or cells: baculovirus-infected insect cells
T2 sequence (P20815 whole entry): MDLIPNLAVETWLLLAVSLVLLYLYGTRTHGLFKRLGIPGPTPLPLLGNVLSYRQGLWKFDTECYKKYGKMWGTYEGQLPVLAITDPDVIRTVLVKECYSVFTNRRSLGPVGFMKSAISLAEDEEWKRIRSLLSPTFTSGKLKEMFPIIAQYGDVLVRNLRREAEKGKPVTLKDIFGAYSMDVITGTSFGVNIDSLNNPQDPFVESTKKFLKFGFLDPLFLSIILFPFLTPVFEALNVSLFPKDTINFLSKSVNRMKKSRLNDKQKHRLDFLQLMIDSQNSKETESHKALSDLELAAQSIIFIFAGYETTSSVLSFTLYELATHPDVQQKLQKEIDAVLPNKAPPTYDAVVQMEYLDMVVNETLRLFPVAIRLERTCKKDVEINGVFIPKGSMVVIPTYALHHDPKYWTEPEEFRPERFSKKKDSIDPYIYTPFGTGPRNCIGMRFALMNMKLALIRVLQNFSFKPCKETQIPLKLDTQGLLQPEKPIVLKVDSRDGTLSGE
Description: as §1, with “MA). […]” for “MA).”
as §4, with “0. […]” for “0.”
as §6

[2] = 5 μmol/L dronedarone, end of 30-min incubation

Compound: CCCCc1oc2ccc(NS(C)(=O)=O)cc2c1C(=O)c1ccc(O)cc1 [Phenol-dronedarone]
Oxidation by MAOs (MAO-A and MAO-B): contributed to a very small extent
Metabolism in the presence of UDPGA [1]: metabolized
Initial drug metabolized ([1]; UDPGA, in 10 min): more than 70%
Oxidation by FMOs (FMO-1, -3, and -5): contributed to a very small extent
Percentage of oxidation (unchanged drug disappearance) by CYP2D6 (CYP2D6): 94%

Compound: CCCCN(CCCC)CCCOc1ccc(C(=O)O)cc1 [C-dealkyl-dronedarone]
Oxidation by MAOs (MAO-A and MAO-B): not metabolized
Oxidation by FMOs (FMO-1, -3, and -5): not metabolized

Compound: CCCCNCCCOc1ccc(C(=O)c2c(CCCC)oc3ccc(NS(C)(=O)=O)cc23)cc1 [N-debutyl-dronedarone]
Oxidation by FMOs (FMO-1, -3, and -5): Neither other CYPs nor FMOs metabolized N-debutyl-dronedarone to any significant extent
Metabolite formed, as percent of initial dronedarone concentration, with CYP3A5 (CYP3A5; [2]): 50%
Percentage of oxidation (unchanged drug disappearance) by CYP2D6 (CYP2D6): 55%
Metabolite formed, as percent of initial dronedarone concentration, with CYP2D6 (CYP2D6; [2]): less than 1%

More lines, main results first:

Oxidation by MAOs (MAO-A and MAO-B): not involved
Oxidation by FMOs (FMO-1, -3, and -5): not involved
Percentage of oxidation (unchanged drug disappearance) by CYP3A5 (CYP3A5; 100 pmol/mL, 5 μmol/L, 30 min, NADPH): 90%
Percentage of oxidation (unchanged drug disappearance) by CYP2D6 (CYP2D6): 50%
Compound: CCCCc1oc2ccc(NS(C)(=O)=O)cc2c1C(=O)c1ccc(OCCCN(CCCC)CCCC)cc1.Cl [Dronedarone, N-(2-Butyl-3-(4-(3-(dibutylamino)propoxy)benzoyl)-5-benzofuranyl)methanesulfonamide, hydrochloride]

Metabolism in the presence of UDPGA [1]: metabolized
Unchanged drug remaining, percent of initial concentration ([1]; UDPGA, 30th minute of incubation): 70%
Compound: CCCCc1oc2ccc(NS(C)(=O)=O)cc2c1C(=O)c1ccc(OCCC(=O)O)cc1 [Propanoic acid-dronedarone]
Oxidation by MAOs (MAO-A and MAO-B): Neither other CYPs, nor FMOs and MAOs metabolized propanoic acid-dronedarone to any significant extent
Oxidation by FMOs (FMO-1, -3, and -5): Neither other CYPs, nor FMOs and MAOs metabolized propanoic acid-dronedarone to any significant extent
